Test results published in USRE48335E1, “Polymyxin derivatives as antimicrobial compounds” (priority 2014, dated 2020).
In brackets after ≈: the same amount, converted by molar mass. Positions of bridges follow the written chain, without caps; N, C: chain ends. Non-standard residues stand in square brackets, D forms with d. Residues, ends and D or L forms follow the SMILES beside them. *: point of attachment. Phenylacetyl(4-CF3) = O=C(Cc1ccc(C(F)(F)F)cc1)*; Benzoyl(3-CF3) = O=C(c1cccc(C(F)(F)F)c1)*; X17 = Cc1cc(C(=O)*)cc(C(F)(F)F)c1; X16 = O=C(c1cc(F)c(F)c(F)c1)*; dNle = CCCC[C@@H](N)C(=O)O; Octanoyl = CCCCCCCC(=O)*; Dab = NCC[C@H](N)C(=O)O; Abu = CC[C@H](N)C(=O)O; Dap = NC[C@H](N)C(=O)O

Columns and labels:
P. aeruginosa ATCC 27853 = assay: In vivo efficacy in mouse blood infection model (neutropenic Swiss mice); details: compound, free base 4 mg/kg intravenously 2 h after inoculation, blood at 4 h
In short: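 Neutropenic Swiss mice (cyclophosphamide 150 mg/kg day −4, 100 mg/kg day −1, i.p.) infected i.v. with early log-phase bacteria; 4 mg/kg free base i.v. given 2 h post-inoculation. Blood CFU by cardiac puncture 4 h post-dose; Δlog10 CFU/mL treated versus saline controls.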

Klebsiella pneumoniae = tested on: Klebsiella pneumoniae
In short: (§1)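 MICs were determined for the lipopeptides, tested as trifluoroacetic acid salts, by broth microdilution in cation-adjusted Mueller-Hinton broth following CLSI standards (M100-S18). Polymyxin B sulphate served as the control.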

Enterobacter cloacae = tested on: Enterobacter cloacae
In short: as §1

Pseudomonas aeruginosa = tested on: Pseudomonas aeruginosa
In short: as §1

Acinetobacter baumannii = tested on: Acinetobacter baumannii
In short: as §1

Structure (SMILES)	Δ log (Treated-Control at 4 h) (P. aeruginosa ATCC 27853)	MIC (Klebsiella pneumoniae)	Minimum inhibitory concentration, Ec FADDI-EC001 (Enterobacter cloacae)	Minimum inhibitory concentration, Ec FADDI-EC003 (Enterobacter cloacae)	Minimum inhibitory concentration, Ec FADDI-EC006 (Enterobacter cloacae)	MIC (Pseudomonas aeruginosa)	Minimum inhibitory concentration, Pa ATCC 27853 (Pseudomonas aeruginosa)	Minimum inhibitory concentration, Pa FADDI-PA022 (Pseudomonas aeruginosa)	Minimum inhibitory concentration, Pa FADDI-PA025 (Pseudomonas aeruginosa)	MIC (Acinetobacter baumannii)	Minimum inhibitory concentration, Ab A ATCC 17978 (Acinetobacter baumannii)	Minimum inhibitory concentration, Ab ATCC 19606 (Acinetobacter baumannii)	Minimum inhibitory concentration, Ab FADDI-AB034 (Acinetobacter baumannii)
CC[C@@H]1NC(=O)[C@@H](CC(C)C)NC(=O)[C@H](CCN)NC(=O)[C@@H](NC(=O)[C@H](CN)NC(=O)[C@@H](NC(=O)[C@H](CCN)NC(=O)c2cc(C)cc(C(F)(F)F)c2)[C@@H](C)O)CCNC(=O)[C@H]([C@@H](C)O)NC(=O)[C@H](CCN)NC(=O)[C@H](CCN)NC1=O [Compound 120] (X17-[Dab]T[Dap][Dab][Dab][dL][Abu][Dab][Dab]T; lactam 4-C)	−3.20 log10 CFU/mL	0.5 µg/mL (≈ 0.426 µM)	0.25 µg/mL (≈ 0.213 µM)	0.25 µg/mL (≈ 0.213 µM)	0.25 µg/mL (≈ 0.213 µM)	1 µg/mL (≈ 0.852 µM)	1 µg/mL (≈ 0.852 µM)	1 µg/mL (≈ 0.852 µM)	2 µg/mL (≈ 1.7 µM)	1 µg/mL (≈ 0.852 µM)	0.5 µg/mL (≈ 0.426 µM)	1 µg/mL (≈ 0.852 µM)	0.5 µg/mL (≈ 0.426 µM)
CCCC[C@H]1NC(=O)[C@H](CCN)NC(=O)[C@@H](NC(=O)[C@H](CN)NC(=O)[C@@H](NC(=O)[C@H](CCN)NC(=O)c2cccc(C(F)(F)F)c2)[C@@H](C)O)CCNC(=O)[C@H]([C@@H](C)O)NC(=O)[C@H](CCN)NC(=O)[C@H](CCN)NC(=O)[C@H](CC)NC1=O [Compound 121] ({Benzoyl(3-CF3)}-[Dab]T[Dap][Dab][Dab][dNle][Abu][Dab][Dab]T; lactam 4-C)	−2.81 log10 CFU/mL	0.25 µg/mL (≈ 0.216 µM)	0.25 µg/mL (≈ 0.216 µM)	0.25 µg/mL (≈ 0.216 µM)	0.25 µg/mL (≈ 0.216 µM)	0.5 µg/mL (≈ 0.431 µM)	0.5 µg/mL (≈ 0.431 µM)	1 µg/mL (≈ 0.863 µM)	2 µg/mL (≈ 1.73 µM)	0.5 µg/mL (≈ 0.431 µM)	0.5 µg/mL (≈ 0.431 µM)	0.5 µg/mL (≈ 0.431 µM)	0.5 µg/mL (≈ 0.431 µM)
C[C@@H](O)[C@@H]1NC(=O)[C@H](CCN)NC(=O)[C@H](CCN)NC(=O)[C@H]([C@@H](C)O)NC(=O)[C@@H](Cc2ccccc2)NC(=O)[C@H](CCN)NC(=O)[C@@H](NC(=O)[C@H](CN)NC(=O)[C@@H](NC(=O)[C@H](CCN)NC(=O)c2cccc(C(F)(F)F)c2)[C@@H](C)O)CCNC1=O [Compound 124] ({Benzoyl(3-CF3)}-[Dab]T[Dap][Dab][Dab][dF]T[Dab][Dab]T; lactam 4-C)	−3.36 log10 CFU/mL	0.25 µg/mL (≈ 0.207 µM)	0.5 µg/mL (≈ 0.413 µM)	<0.125 µg/mL	0.5 µg/mL (≈ 0.413 µM)	0.25 µg/mL (≈ 0.207 µM)	0.25 µg/mL (≈ 0.207 µM)	0.5 µg/mL (≈ 0.413 µM)	2 µg/mL (≈ 1.65 µM)	1 µg/mL (≈ 0.827 µM)	1 µg/mL (≈ 0.827 µM)	1 µg/mL (≈ 0.827 µM)	0.25 µg/mL (≈ 0.207 µM)
CCCC[C@H]1NC(=O)[C@H](CCN)NC(=O)[C@@H](NC(=O)[C@H](CN)NC(=O)[C@@H](NC(=O)[C@H](CCN)NC(=O)c2cccc(C(F)(F)F)c2)[C@@H](C)O)CCNC(=O)[C@H]([C@@H](C)O)NC(=O)[C@H](CCN)NC(=O)[C@H](CCN)NC(=O)[C@H](C)NC1=O [Compound 125] ({Benzoyl(3-CF3)}-[Dab]T[Dap][Dab][Dab][dNle]A[Dab][Dab]T; lactam 4-C)	−3.66 log10 CFU/mL	0.25 µg/mL (≈ 0.218 µM)	0.5 µg/mL (≈ 0.437 µM)	0.5 µg/mL (≈ 0.437 µM)	1 µg/mL (≈ 0.873 µM)	0.25 µg/mL (≈ 0.218 µM)	0.25 µg/mL (≈ 0.218 µM)	0.5 µg/mL (≈ 0.437 µM)	2 µg/mL (≈ 1.75 µM)	1 µg/mL (≈ 0.873 µM)	1 µg/mL (≈ 0.873 µM)	1 µg/mL (≈ 0.873 µM)	0.5 µg/mL (≈ 0.437 µM)
CC[C@@H]1NC(=O)[C@@H](CC(C)C)NC(=O)[C@H](CCN)NC(=O)[C@@H](NC(=O)[C@H](CN)NC(=O)[C@@H](NC(=O)[C@H](CCN)NC(=O)Cc2ccc(C(F)(F)F)cc2)[C@@H](C)O)CCNC(=O)[C@H]([C@@H](C)O)NC(=O)[C@H](CCN)NC(=O)[C@H](CCN)NC1=O [Compound 127] ({Phenylacetyl(4-CF3)}-[Dab]T[Dap][Dab][Dab][dL][Abu][Dab][Dab]T; lactam 4-C)	−3.51 log10 CFU/mL	0.5 µg/mL (≈ 0.426 µM)	<0.125 µg/mL	0.25 µg/mL (≈ 0.213 µM)	0.5 µg/mL (≈ 0.426 µM)	0.5 µg/mL (≈ 0.426 µM)	0.5 µg/mL (≈ 0.426 µM)	0.5 µg/mL (≈ 0.426 µM)	16 µg/mL (≈ 13.6 µM)	4 µg/mL (≈ 3.41 µM)	1 µg/mL (≈ 0.852 µM)	4 µg/mL (≈ 3.41 µM)	0.5 µg/mL (≈ 0.426 µM)
CCCCCCCC(=O)N[C@@H](CCN)C(=O)N[C@H](C(=O)N[C@@H](CN)C(=O)N[C@H]1CCNC(=O)[C@H]([C@@H](C)O)NC(=O)[C@H](CCN)NC(=O)[C@H](CCN)NC(=O)[C@H](CC)NC(=O)[C@@H](Cc2ccccc2)NC(=O)[C@H](CCN)NC1=O)[C@@H](C)O [Compound 130] (Octanoyl-[Dab]T[Dap][Dab][Dab][dF][Abu][Dab][Dab]T; lactam 4-C)	−3.66 log10 CFU/mL	0.5 µg/mL (≈ 0.436 µM)	0.25 µg/mL (≈ 0.218 µM)	0.25 µg/mL (≈ 0.218 µM)	1 µg/mL (≈ 0.872 µM)	0.5 µg/mL (≈ 0.436 µM)	0.5 µg/mL (≈ 0.436 µM)	2 µg/mL (≈ 1.74 µM)	2 µg/mL (≈ 1.74 µM)	0.25 µg/mL (≈ 0.218 µM)	0.25 µg/mL (≈ 0.218 µM)	0.25 µg/mL (≈ 0.218 µM)	0.25 µg/mL (≈ 0.218 µM)
CC[C@@H]1NC(=O)[C@@H](CC(C)C)NC(=O)[C@H](CCN)NC(=O)[C@@H](NC(=O)[C@H](CN)NC(=O)[C@@H](NC(=O)[C@H](CCN)NC(=O)c2cc(F)c(F)c(F)c2)[C@@H](C)O)CCNC(=O)[C@H]([C@@H](C)O)NC(=O)[C@H](CCN)NC(=O)[C@H](CCN)NC1=O [Compound 133] (X16-[Dab]T[Dap][Dab][Dab][dL][Abu][Dab][Dab]T; lactam 4-C; N-terminus assumed)	−3.23 log10 CFU/mL	0.25 µg/mL (≈ 0.218 µM)	0.5 µg/mL (≈ 0.437 µM)	0.25 µg/mL (≈ 0.218 µM)	0.25 µg/mL (≈ 0.218 µM)	0.5 µg/mL (≈ 0.437 µM)	0.5 µg/mL (≈ 0.437 µM)	0.5 µg/mL (≈ 0.437 µM)	2 µg/mL (≈ 1.75 µM)	2 µg/mL (≈ 1.75 µM)	0.5 µg/mL (≈ 0.437 µM)	2 µg/mL (≈ 1.75 µM)	0.25 µg/mL (≈ 0.218 µM)
